Assay results taken from patent publication US5939094A (priority 1996, dated 1999).
Like-named read-outs stand apart in the source and are kept apart here.

How the values were obtained:
[1] = emulsions with apomorphine HCl and acrylic acid polymer gels, pH 7.6
[2] = cited from earlier work
skin = details: rabbit, in vivo, 0.5 mg/kg
[3] = Method: Human skin samples were obtained from white female patients undergoing breast reduction surgery and prepared for in vitro permeation studies. Samples were stratum corneum from breasts of patients (Sample A) and (Samples B & C). A 2.0 cm^2 section of the skin tissue was placed in a Franz cell holder and maintained under phosphate buffered saline (PBS: 0.01M phosphate, 0.9% NaCl, pH 6.0) until testing. PBS (6.8 to 7.3 ml) was placed on the receptor side of the Franz cell. […] The cell was incubated at 35±1° C. A 250 μl sample was taken from the receptor medium at the following times: 0, 1/2, 1, 2, 4, and 6 hours. An equal volume of PBS was replaced each time a sample was withdrawn.
Samples were pre-filtered (0.45 μm) prior to injection. Samples (50 μl) were injected on an Altima (Alltech Associates) C18 column (15 cm×4.3 mm) with guard column. The mobile phase consisted of a 60:40 mixture of 5 mM sodium dodecylsulfate in 1 mM NH4 PO4 buffer, pH 3.0 and acetonitrile.

[4] = administered in a cream; cited from earlier work
in vivo = details: rabbit, 0.5 mg/kg; for AUC: AUC (area under the concentration vs time curve); for MRT: MRT (mean residence time)
[5] = rabbit
[6] = man, cited from earlier work
Parkinson's disease = details: chronic oral levodopa, after initial 3-6 years; cited from earlier work
[7] = sc, model-dependent, subcutaneous, n=6, mean
[8] = topical or ocular, model-independent
[9] = in vivo, topical or ocular, 0.5 mg/kg
[10] = subcutaneous, 0.5 mg/kg, n=6, mean

N[C@@H](CCC(=O)N[C@@H](CS)C(=O)NCC(=O)O)C(=O)O [glutathione]
antioxidant suitability for apomorphine HCl emulsions and gels [1]: acceptable antioxidant

CN1CCc2cccc3c2[C@H]1Cc1ccc(O)c(O)c1-3 [Apomorphine, apomorphine]
duration of action ([2]; Parkinson's disease, movement disorders): short duration of action
adverse effects of oral or sublingual administration ([2]; oral or sublingual): stomatitis, and the development of buccal ulcers
breakdown in the liver ([2]; oral or sublingual): breakdown of the drug in the liver
local adverse effect (skin): No local adverse effect
FLUX, AVERAGE [3]: 1.61 μg/cm^2 /hr
In vitro transdermal permeation, TIME 0 hours [3]: 0
In vitro transdermal permeation, TIME 0 hours, AVERAGE [3]: 0
In vitro transdermal permeation, TIME 0.5 hours, AVERAGE [3]: 0.44
In vitro transdermal permeation, TIME 1 hour, AVERAGE [3]: 2.05
In vitro transdermal permeation, TIME 2 hours, AVERAGE [3]: 2.93
In vitro transdermal permeation, TIME 4 hours, AVERAGE [3]: 7.03
In vitro transdermal permeation, TIME 6 hours, AVERAGE [3]: 6.30
plasma levels of apomorphine [4]: No detectable plasma levels
CL/F (in vivo; sc): 31 ± 5 mL/min/kg
Cmax (in vivo; sc): 331 ± 46 ng/mL
Tmax (in vivo; sc): 25.8 min
concentration at 4 h (in vivo; sc): 3 ± 1 ng/mL
k el (in vivo; sc): 0.00035 s⁻¹
AUC (in vivo; [7]): 309 ng·h/mL
AUC (in vivo; sc, model-independent): 297 ng·h/mL
MRT (in vivo; [7]): 52 min
MRT (in vivo; sc, model-independent): 50 min
Vd/F (in vivo; sc, Vd (apparent volume of distribution)): 1.45 ± 0.12 L/kg
Vd/F (in vivo; sc, Vdss, model-dependent): 1.1 ± 0.3 L/kg
CL/F (in vivo; topical or ocular): 37 ± 1 mL/min/kg
Cmax (in vivo; topical or ocular): 56 ± 12 ng/mL
Tmax (in vivo; topical or ocular): 29.4 min
k el (in vivo; topical or ocular): 0.000233 s⁻¹
AUC (in vivo; [8]): 104 ng·h/mL
MRT (in vivo; [8]): 168 min
Vd/F (in vivo; topical or ocular, Vd (apparent volume of distribution)): 2.72 ± 0.36 L/kg
Time for absorption of 10% of the drug ([5]; in vivo): 11.4 ± 3.4 min
Time for absorption of 50% of the drug ([5]; in vivo): 105.7 ± 23.9 min
absorption of the drug after percutaneous administration ([5]; in vivo, 0.5 mg/kg): absorption of the drug in all tested animals
bioequivalence (F) of percutaneous route vs subcutaneous administration ([5]; in vivo, 0.5 mg/kg): 35%
duration of the first, rapid absorption phase ([5]; in vivo, 0.5 mg/kg): 1 h
plasma concentration between the fourth and the fifth hour ([5]; in vivo, 0.5 mg/kg): an increase in the plasma concentration
plasma levels after removal of the gel ([5]; in vivo, 0.5 mg/kg): decreased
time until which absorption persisted ([5]; in vivo, 0.5 mg/kg): 450 min
Time for absorption of 10% of the drug ([5]; in vivo, sc): 4.0 ± 0.7 min
Time for absorption of 50% of the drug ([5]; in vivo, sc): 19.9 ± 2.9 min
absorption of the available amount of the drug after 150 minutes ([5]; in vivo, sc, 0.5 mg/kg): practically complete
k12 (transfer rate constant) ([5]; in vivo, sc, 0.5 mg/kg): 0.005 L/min
k13 (transfer rate constant) ([5]; in vivo, sc, 0.5 mg/kg): 0.057 L/min
k21 (transfer rate constant) ([5]; in vivo, sc, 0.5 mg/kg): 0.027 L/min
ka (exponent of the fitted function) ([5]; in vivo, sc, 0.5 mg/kg): 0.088 L/min
tmax (time to peak plasma concentration) ([5]; in vivo, sc, 0.5 mg/kg): 25.8 ± 4.9 min
α (exponent of the fitted function) ([5]; in vivo, sc, 0.5 mg/kg): 0.044 L/min
plasma level plateau [5, 9]: 10 to 15 ng/mL
stable mean plasma level after the second hour [5, 9]: 10 ng/mL
tmax (time to peak plasma concentration) [5, 9]: 29.4 ± 7.8 min
Cl, comparison of routes ([5]; subcutaneous vs percutaneous, 0.5 mg/kg): not different between the two routes
A (coefficient of the fitted function) [5, 10]: 712 ng/mL
B (coefficient of the fitted function) [5, 10]: 298 ng/mL
C0 (coefficient of the fitted function) [5, 10]: 1,010 ng/ml
Vd (mean) ([6]; i.v. injection): 2 L/kg
Vd (mean) ([6]; subcutaneous injection): 2 L/kg
tmax (range) ([6]; subcutaneous injection): 7 to 16 min

N[C@@H](Cc1ccc(O)c(O)c1)C(=O)O [levodopa]
patients with movement abnormalities (Parkinson's disease): 40-60 % of patients
